Laboratory results: patent publication EP4813979A1, “COMPOUND FOR EGFR PROTEIN DEGRADATION AND USE THEREOF” (TYK Medicines, Inc., priority 2023, dated 2025)

Columns and labels:
[1] = tested on: A549; assay: Cell anti-proliferation experiment (CTG); type: cell-based; details: Homo sapiens, A549, 72 h, A549 (wild-type EGFR)
Description: (§1) H1975 has an EGFR: T790M/L858R double mutation, PC-9 has an EGFR exon 19 deletion, and HCC827 has an exon 19 deletion mutation. Baf3-19del- T790M -C797S (Baf3-DTC) is a stable Ba/F3 clone expressing exogenous EGFR gene bearing T790M, C797S, and […] triple amino acid mutations, purchased from KYinno. Baf3-L858R-T790M - C797S (Baf3-LTC) is a stable Ba/F3 clone expressing exogenous EGFR gene bearing […], T790M, and C797S triple mutations, purchased from KYinno. A549 is a wild-type EGFR, purchased from Nanjing Kebai Biotechnology. A431 is a wild-type EGFR, purchased from Shanghai Xinyu Biotechnology. CellCounting-Lite2.0, Trypsin EDTA, 37°C CO2 incubator, cell counter, EnVision Serial No. 1050454.
(§2) • A) Digested logarithmic phase cells with Trypsin EDTA, added culture medium to stop the reaction, and mixing well with a pipette to prepare a cell suspension. • B) Used Vi-cell to determine cell concentration, and prepared a suspension of 15,000-25,000 cells per milliliter according to the experimental purpose and cell characteristics. • C) After prepared the cell suspension, mixed it gently and added 100 µL to each well, so that the cell density to be tested is 1500-2500 per well.
(§3) • A) Weighed approximately 2 mg the compound and calculated the required volume of DMSO according to the formula: Compound mass (mg) * Compound purity (%) / Compound molecular weight * 1000. • B) Placed the inoculated cell culture plate into an incubator and incubated for about 24 hours. Then added compounds of varying concentrations. • C) Diluted the 10mM compound stock solution to […] with culture medium, and added the […] compound solution to the second column of the deep well plate in sequence, and added […] culture medium containing 0.5% DMSO to the third to eleventh columns. • D) Gradient dilution: Taked 125 µL solution from the second column and added it to the third column, mix well; then taked 125 µL solution from the third column and added it to the fourth column, repeated this operation until the tenth column. • E) Used a multichannel pipette, aspirated 25 µL the compound from the deep-well plate and added it to a 96-well culture plate. Repeated this process three times for each compound on the 96-well plate. This will ultimately create a concentration gradient of up to 10,000 nM at a 1:4 ratio on the 96-well plate.
(§4) • A) The effects of the compound were observed under an inverted microscope after the 96-well plate was incubated in an incubator for 72 hours. • B) Added 25 µL CTG solution to each well, placed on a shaker for 10 minutes, and read the […] of each well.
(§5) Calculate the % Cell Viability using the following formula: %Cell Viability = 100% × (Lum_Sample−Lum_LC)/(Lum_HC−Lum_LC) [formula] • Lum_HC: Cell readings from the 0.1% DMSO control group • Lum_Sample: Cell readings with added compound • Lum_LC: Blank culture medium reading
(§6) The IC50 value was obtained by curve fitting using GraphPad Prism 8 software.

[2] = tested on: PC-9; assay: Cell anti-proliferation experiment (CTG); type: cell-based; details: Homo sapiens, PC-9, 72 h, PC-9 (EGFR exon 19 deletion)
Description: as §1, §2, §3, §4, §5, §6

[3] = tested on: HCC827; assay: Cell anti-proliferation experiment (CTG); type: cell-based; details: Homo sapiens, HCC827, 72 h, HCC827 (exon 19 deletion)
Description: as §1, §2, §3, §4, §5, §6

[4] = tested on: H1975; assay: Cell anti-proliferation experiment (CTG); type: cell-based; details: Homo sapiens, NCI-H1975, 72 h, H1975 (EGFR T790M/L858R)
Description: as §1, §2, §3, §4, §5, §6

[5] = tested on: A431; assay: Cell anti-proliferation experiment (CTG); type: cell-based; details: Homo sapiens, A-431, 72 h, A431 (wild-type EGFR), class symbol
Description: as §1, §2, §3, §4, §5, §6

[6] = tested on: Baf3-19del- T790M -C797S (Baf3-DTC); assay: Cell anti-proliferation experiment (CTG); type: cell-based; details: 72 h, class symbol
Description: as §1, §2, §3, §4, §5, §6

[7] = tested on: Baf3-L858R-T790M - C797S (Baf3-LTC); assay: Cell anti-proliferation experiment (CTG); type: cell-based; details: 72 h, class symbol
Description: as §1, §2, §3, §4, §5, §6

[8] = Pharmacokinetic tests in male SD rats; type: in vivo; details: oral gavage (po), 10 mg/kg, plasma
Protocol: Three healthy adult male SD rats, 6-8 weeks old, weighing 200-300 grams.
EDTA-Na2 anticoagulant, weighed 11.2 g EDTA-Na2 and placed it in a reagent bottle. Added 100 mL physiological saline and shaked to dissolve completely. After preparation, dispensed into 1.5 mL centrifuge tubes, each containing approximately 20 µL, for whole blood sample collection.
Accurately weighed approximately 10 mg the sample to be tested, added 10% of the converted total volume of DMSO to dissolve it, and then slowly added 90% of the total volume of 0.5% MC solvent while stirring. Sonicated and vortex to mix thoroughly to obtain a solution of the preparation that is considered to be homogeneous, with a concentration of 1 mg/mL. Prepared fresh immediately before use.
Piped 0.2 mL the sample into a 1.5 mL centrifuge tube and store at -80°C for analysis of the concentration of the drug solution.
Animals were housed in rat cages and fasted for at least 10 hours starting the day before the experiment, but water was allowed. On the day of the experiment, each animal was weighed and marked on its tail. Blank blood samples were collected before drug administration. Blood was collected via tail vein.
• Route of administration: Oral gavage (po); • Dosage concentration: 1 mg/ml; • Dosage: 10 mg/kg; • Dosage volume: 10 mL/kg; • Procedure: Hold the rat upright with your left hand wearing a bite-proof glove, insert the gavage needle into the throat through the mouth, and insert the needle when feeling no obvious resistance. Then inject the drug into the stomach.
Whole blood (0.1-0.2 ml) was collected from test animals at 0.5 h, 1 h, 2 h, 4 h, 6 h, 8 h, 12 h, and 24 h after drug administration. The samples were placed in EDTA-Na 2 anticoagulant tubes, inverted 3-4 times to mix, and centrifuged at 4°C, 2000 g for 5 min to separate the supernatant plasma. The plasma was promptly transferred to -80°C for storage until analysis. Blood was collected via tail vein.
A quantitative detection method for the analyte was established using Shimadzu liquid chromatography and Triple Quad™ 6500+AB mass spectrometry. The concentration of the parent drug in plasma was analyzed. The analytical results were controlled for variation using quality control samples, with the accuracy of the quality control samples expected to be between 80% and 120%.
The main pharmacokinetic parameters were calculated using a non-compartmental model in Winnonlin Phoenix software. These parameters included the area under the curve (AUC(0-t) and AUC(0-∞)), elimination half-life (T1/2), maximum plasma concentration (Cmax ), and time to reach maximum plasma concentration (Tmax).The results are shown in Table 3.

| Compound | IC50 ([1]; class symbol) | IC50 ([1]; number after the class symbol) | IC50 ([2]; class symbol) | IC50 ([2]; number after the class symbol) | IC50 ([3]; class symbol) | IC50 ([3]; number after the class symbol) | IC50 ([4]; class symbol) | IC50 ([4]; number after the class symbol) | IC50 [5] | IC50 [6] | IC50 [7] | HL [8] | AUC(0-inf) ([8]; rat) | AUC(0-t) ([8]; rat) | Cmax ([8]; rat) | MRT last ([8]; rat) | Tmax ([8]; rat) |
| --- | --- | --- | --- | --- | --- | --- | --- | --- | --- | --- | --- | --- | --- | --- | --- | --- | --- |
| COc1cc(N2CCN(C(=O)CN3CCC(c4ccc5c(N6CCC(=O)NC6=O)nn(C)c5c4)CC3)CC2)ccc1Nc1ncc(Cl)c(Nc2ccccc2)n1 [DZL-2, reference compound] | 0.1 to 1 µM | 0.289 µM | 0.1 to 1 µM | 0.613 µM | 0.1 to 1 µM | 0.265 µM | 0.1 to 1 µM | 0.22 µM |  |  |  |  |  |  |  |  |  |
| CCc1cc(Nc2ncc(Cl)c(Nc3ccccc3C(=O)NC)n2)c(OC)cc1N1CC2(CN(C(=O)CN3CCC(c4cc5c(cc4F)c(N4CCC(=O)NC4=O)nn5C)C(F)(F)C3)C2)C1 (stereo not drawn) [TA-019] | > 1 µM |  | 0.1 to 1 µM |  | > 1 µM |  | < 0.01 µM |  | > 1 µM | 0.01 to 0.1 µM | 0.01 to 0.1 µM |  |  |  |  |  |  |
| CCc1cc(Nc2ncc(Cl)c(Nc3ccccc3P3(=O)CCCC3)n2)c(OC)cc1N1CC2(CCN(C(=O)CN3CCC(c4cc5c(cc4F)c(N4CCC(=O)NC4=O)nn5C)C(F)(F)C3)CC2)C1 (stereo not drawn) [TB-005] | > 1 µM |  | > 1 µM |  | 0.1 to 1 µM |  | 0.01 to 0.1 µM |  | > 1 µM | 0.01 to 0.1 µM | 0.01 to 0.1 µM |  |  |  |  |  |  |
| CCc1cc(Nc2ncc(Br)c(Nc3ccccc3P3(=O)CCCC3)n2)c(OC)cc1N1CC2(CCN(C(=O)CN3CCC(c4cc5c(cc4F)c(N4CCC(=O)NC4=O)nn5C)CC3)CC2)C1 [TB-008] | 0.1 to 1 µM |  | 0.1 to 1 µM |  | 0.01 to 0.1 µM |  | 0.01 to 0.1 µM |  | 0.1 to 1 µM | 0.01 to 0.1 µM | 0.01 to 0.1 µM |  |  |  |  |  |  |
| CCc1cc(Nc2ncc(Cl)c(Nc3ccccc3P(C)(C)=O)n2)c(OC)cc1N1CCC(N(C)C(=O)CN2CCC(c3cc4c(cc3F)c(N3CCC(=O)NC3=O)nn4C)C(F)(F)C2)CC1 (stereo not drawn) [TC-089] | > 1 µM |  | 0.1 to 1 µM |  | 0.1 to 1 µM |  | 0.01 to 0.1 µM |  | > 1 µM | 0.01 to 0.1 µM | 0.01 to 0.1 µM |  |  |  |  |  |  |
| CCc1cc(Nc2ncc(Cl)c(Nc3ccccc3P(C)(C)=O)n2)c(OC)cc1N1CCN(CCN2CCC(c3cc4c(cc3F)c(N3CCC(=O)NC3=O)nn4C)C(F)(F)C2)CC1 (stereo not drawn) [TC-099] |  |  |  |  |  |  |  |  |  |  |  | 7.86 h | 9130 ng·h/mL | 7840 ng·h/mL | 649 ng/mL | 7.79 h | 2.67 h |
| CCc1cc(Nc2ncc(Cl)c(Nc3ccccc3P(C)(C)=O)n2)c(OC)cc1N1CC2(CCN(C(=O)CN3CCC(c4cc5c(cc4F)c(N4CCC(=O)NC4=O)nn5C)C(F)(F)C3)C2)C1 (stereo not drawn) [TC-105] | 0.1 to 1 µM |  | 0.1 to 1 µM |  | 0.01 to 0.1 µM |  | 0.1 to 1 µM |  | 0.1 to 1 µM | 0.01 to 0.1 µM | 0.01 to 0.1 µM |  |  |  |  |  |  |
| CCc1cc(Nc2ncc(Cl)c(Nc3ccccc3P(C)(C)=O)n2)c(OC)cc1N1CCC2(CCN(C(=O)CN3CCC(c4cc5c(cc4F)c(N4CCC(=O)NC4=O)nn5C)C(F)(F)C3)CC2)C1 (stereo not drawn) [TC-111] | 0.1 to 1 µM |  | 0.1 to 1 µM |  | 0.1 to 1 µM |  | 0.1 to 1 µM |  | > 1 µM | 0.01 to 0.1 µM | 0.01 to 0.1 µM |  |  |  |  |  |  |
| CCc1cc(Nc2ncc(Cl)c(Nc3ccccc3P(C)(C)=O)n2)c(OC)nc1N1CCN(C(=O)CN2CCC(c3cc4c(cc3F)c(N3CCC(=O)NC3=O)nn4C)C(F)(F)C2)CC1 (stereo not drawn) [TC-115] | 0.1 to 1 µM |  | 0.1 to 1 µM |  | 0.1 to 1 µM |  | 0.1 to 1 µM |  | > 1 µM | 0.01 to 0.1 µM | 0.01 to 0.1 µM |  |  |  |  |  |  |
| COc1nc(N2CCN(C(=O)CN3CCC(c4cc5c(cc4F)c(N4CCC(=O)NC4=O)nn5C)C(F)(F)C3)CC2)ccc1Nc1ncc(Cl)c(Nc2ccccc2P(C)(C)=O)n1 (stereo not drawn) [TC-125] | 0.1 to 1 µM |  | 0.1 to 1 µM |  | 0.1 to 1 µM |  | 0.1 to 1 µM |  | 0.1 to 1 µM | 0.1 to 1 µM | 0.01 to 0.1 µM |  |  |  |  |  |  |
| CCc1cc(Nc2ncc(Cl)c(Nc3ccccc3P(C)(C)=O)n2)c(OCC(F)(F)F)nc1N1CCN(C(=O)CN2CCC(c3cc4c(cc3F)c(N3CCC(=O)NC3=O)nn4C)C(F)(F)C2)CC1 (stereo not drawn) [TC-127] | > 1 µM |  | > 1 µM |  | 0.1 to 1 µM |  | 0.1 to 1 µM |  | > 1 µM | 0.01 to 0.1 µM | 0.01 to 0.1 µM |  |  |  |  |  |  |
| CCc1cc(Nc2ncc(Cl)c(Nc3ccccc3P(C)(C)=O)n2)c2c(c1N1CCN(C(=O)CN3CCC(c4cc5c(cc4F)c(N4CCC(=O)NC4=O)nn5C)C(F)(F)C3)CC1)CCO2 (stereo not drawn) [TC-135] | > 1 µM |  | > 1 µM |  | 0.1 to 1 µM |  | 0.01 to 0.1 µM |  | > 1 µM | < 0.01 µM | < 0.01 µM |  |  |  |  |  |  |
